Source: patent publication US10932465B2, “Antimicrobial mixture containing 4-(3-ethoxy-4-hydroxyphenyl)butan-2-one and a diol, and cosmetic composition containing same” (L'OREAL, priority 2017, dated 2021)
Structures can show the parent of a compound that is named as a salt. One block for each compound: values may come before it.

How the values were obtained:
[1] = tested on: Aspergillus niger ATCC 6275; test: MIC / microbial growth test, 96-well microplate, optical density at 620 nm, with FIC index; assay type: cell-based
Source text: FIC Index=([…]) with: • MICa with B: minimum concentration of product A in the combination A+B which makes it possible to obtain an inhibitory effect • MICb with A: minimum concentration of product B in the combination A+B which makes it possible to obtain an inhibitory effect. • MICa: minimum inhibitory concentration of product A alone. • MICb: minimum inhibitory concentration of product B alone. […] As regards the combinations tested, MICa with b and MICb with a are the respective concentrations of A and of B in the combinations which make it possible to obtain a microbial growth percentage of less than or equal to 25%. When the FIC index value is less than or equal to 1, it is considered that the combination of test compounds has a synergistic effect. The combinations of compounds A and B were tested on the following strains: Aspergillus niger and Candida albicans. […] A 96-well microplate and an incubation temperature of 32.5° C. are used. The incubation time of the microplate is: • from 24 hours to 48 hours aerobically for Aspergillus niger, • from 18 hours to 24 hours aerobically for Candida albicans. A 10% (weight/volume) stock solution was prepared by mixing 1 g of compound in 9 ml of aqueous 1%o agar solution. […] 50 μL of each of the daughter solutions obtained containing compound A or B1 or B2 are added to the microplate wells. 100 μL of Sabouraud liquid nutrient broth seeded with the strain Aspergillus niger and 50 μL of aqueous 1%o agar solution are also added thereto. 50 μL of each of the daughter solutions obtained containing compound A and 50 μL of each of the daughter solutions obtained containing compound B1 or B2 are added to the microplate wells. 100 μL of Sabouraud liquid nutrient broth seeded at double concentration with the strain Aspergillus niger are also added thereto. A positive microbial growth control was also prepared. […] This control corresponds to 100 μL of double concentration sterile Sabouraud liquid nutrient broth+100 μL of double concentration compound A or B1 or B2. […] In the two cases (test and control), the inoculum represents the concentration of the strain Aspergillus niger present in the final volume of the wells (200 μL) and is between 2 and 6×10^5 cfu/ml of Aspergillus niger.

[2] = tested on: Candida albicans ATCC 10231; test: as above; assay type: cell-based
Source text: FIC Index=([…]) with: • MICa with B: minimum concentration of product A in the combination A+B which makes it possible to obtain an inhibitory effect • MICb with A: minimum concentration of product B in the combination A+B which makes it possible to obtain an inhibitory effect. • MICa: minimum inhibitory concentration of product A alone. • MICb: minimum inhibitory concentration of product B alone. […] As regards the combinations tested, MICa with b and MICb with a are the respective concentrations of A and of B in the combinations which make it possible to obtain a microbial growth percentage of less than or equal to 25%. When the FIC index value is less than or equal to 1, it is considered that the combination of test compounds has a synergistic effect. The combinations of compounds A and B were tested on the following strains: Aspergillus niger and Candida albicans. […] A 96-well microplate and an incubation temperature of 32.5° C. are used. The incubation time of the microplate is: • from 24 hours to 48 hours aerobically for Aspergillus niger, • from 18 hours to 24 hours aerobically for Candida albicans. A 10% (weight/volume) stock solution was prepared by mixing 1 g of compound in 9 ml of aqueous 1%o agar solution. […] 50 μL of each of the daughter solutions obtained containing compound A or B1 or B2 are added to the microplate wells. 100 μL of Sabouraud liquid nutrient broth seeded with the strain Aspergillus niger and 50 μL of aqueous 1%o agar solution are also added thereto. 50 μL of each of the daughter solutions obtained containing compound A and 50 μL of each of the daughter solutions obtained containing compound B1 or B2 are added to the microplate wells. 100 μL of Sabouraud liquid nutrient broth seeded at double concentration with the strain Aspergillus niger are also added thereto. A positive microbial growth control was also prepared. […] This control corresponds to 100 μL of double concentration sterile Sabouraud liquid nutrient broth+100 μL of double concentration compound A or B1 or B2.

[3] = Aspergillus niger, growth <= 25%
[4] = Candida albicans, growth <= 25%

% MIC of B2 alone [1, 3]: 0.02%
% MIC of B2 alone [2, 4]: 0.001%
SMILES: [H]/N=C(\N/C(=N/[H])NCCCCCCNC(=N)NC(=N)Nc1ccc(Cl)cc1)Nc1ccc(Cl)cc1 [B2, chlorhexidine hydrochloride, reference compound]
microbial growth percentage ([1]; 0 A + 0.025 B2 (weight %)): 194%
microbial growth percentage ([1]; 0 A + 0.05 B2 (weight %)): 121%
microbial growth percentage ([1]; 0 A + 0.1 B2 (weight %)): 137%
microbial growth percentage ([1]; 0 A + 0.2 B2 (weight %)): 2%
microbial growth percentage ([2]; 0 A + 0.00025 B2 (weight %)): 82%
microbial growth percentage ([2]; 0 A + 0.0005 B2 (weight %)): 64%
microbial growth percentage ([2]; 0 A + 0.001 B2 (weight %)): 14%

% MIC of B1 alone [1, 3]: 0.01%
% MIC of B1 alone [2, 4]: 0.001%
SMILES: N=C(NCCCCCCNC(=N)NC(=N)Nc1ccc(Cl)cc1)NC(=N)Nc1ccc(Cl)cc1.O=C(O)[C@H](O)[C@@H](O)[C@H](O)[C@H](O)CO.O=C(O)[C@H](O)[C@@H](O)[C@H](O)[C@H](O)CO [B1, chlorhexidine digluconate, reference compound]
microbial growth percentage ([1]; 0 A + 0.0025 B1 (weight %)): 98%
microbial growth percentage ([1]; 0 A + 0.005 B1 (weight %)): 98%
microbial growth percentage ([1]; 0 A + 0.01 B1 (weight %)): 7%
microbial growth percentage ([2]; 0 A + 0.00025 B1 (weight %)): 59%
microbial growth percentage ([2]; 0 A + 0.0005 B1 (weight %)): 32%
microbial growth percentage ([2]; 0 A + 0.001 B1 (weight %)): 3%

% MIC of A alone ([1]; Aspergillus niger, series with B1, growth <= 25%): 0.25%
% MIC of A alone ([1]; Aspergillus niger, series with B2, growth <= 25%): 0.4%
% MIC of A alone ([1]; Aspergillus niger, series with B3, growth <= 25%): 0.25%
% MIC of A alone ([2]; Candida albicans, series with B1, growth <= 25%): 0.1%
SMILES: CCOc1cc(CCC(C)=O)ccc1O [A, 4-(3-ethoxy-4-hydroxyphenyl)butan-2-one]
microbial growth percentage ([1]; 0.025 A + 0 B2 (weight %)): 228%
microbial growth percentage ([1]; 0.05 A + 0 B2 (weight %)): 109%
microbial growth percentage ([1]; 0.0625 A + 0 B1 (weight %)): 83%
microbial growth percentage ([1]; 0.0625 A + 0 B3 (weight %)): 85%
microbial growth percentage ([1]; 0.1 A + 0 B2 (weight %)): 73%
microbial growth percentage ([1]; 0.125 A + 0 B1 (weight %)): 49%
microbial growth percentage ([1]; 0.125 A + 0 B3 (weight %)): 48%
microbial growth percentage ([1]; 0.2 A + 0 B2 (weight %)): 72%
microbial growth percentage ([1]; 0.25 A + 0 B1 (weight %)): 5%
microbial growth percentage ([1]; 0.25 A + 0 B3 (weight %)): 7%
microbial growth percentage ([1]; 0.4 A + 0 B2 (weight %)): 6%
microbial growth percentage ([2]; 0.025 A + 0 B1 (weight %)): 63%
microbial growth percentage ([2]; 0.025 A + 0 B2 (weight %)): 83%
microbial growth percentage ([2]; 0.05 A + 0 B1 (weight %)): 47%
microbial growth percentage ([2]; 0.05 A + 0 B2 (weight %)): 70%
microbial growth percentage ([2]; 0.1 A + 0 B1 (weight %)): 22%
microbial growth percentage ([2]; 0.1 A + 0 B2 (weight %)): 50%
microbial growth percentage ([2]; 0.2 A + 0 B2 (weight %)): 10%
